Biological target: human truncated cGAS enzyme (147-522 human cGAS) (Homo sapiens (Human), UniProt Q8N884)
Test: Quantification of cGAS protein inhibition (cGAMP formation measured by LC-MS/MS)
Type: biochemical
Conditions: reported for the potential mixture in solution of co-existing tautomers and/or racemates
Description: A reagent buffer was prepared in filtered and autoclaved water according to the following: • 50 mM Tris-buffer pH 7.5 (1 M Tris-buffer pH 7.5, Invitrogen, Cat. No. 15567-027); • 50 mM NaCl (5 M NaCl, Sodium Chloride Solution, Sigma, 59222C-); • 5 mM MgCl2 (1 M MgCl2, Sigma, M1028); • 0.1 mM ZnCl2 (Zinc Chloride [7646-85-7], powder, Cell Culture Tested, Sigma, Z-0152); and • 0.001% Tween 20 (TWEEN 20, Sigma Aldrich, P1379-).
A buffer for the cGAS enzyme was prepared in filtered and autoclaved water according to the following: • 50 mM Tris-buffer pH 7.5; • 5 mM MgCl2; and • 0.001% Tween 20.
Compounds were dispensed to a […]. The human truncated cGAS enzyme (4.2 mg/mL 147-522 human cGAS, MW 43,909 g/mol) was stored in 50 mM Tris, 500 mM NaCl, 5% (v/v) glycerol at pH 8 and diluted in the cGAS buffer enzyme shortly before use. The enzyme solution was transferred into the reagent buffer to give a final concentration of 30 nM. The reaction was started by mixing the enzyme with ISD (a 45 bp double stranded DNA, MW 27,670 g/mol, 5 mM), GTP and ATP to a final concentration of 5 μM, 0.5 mM and 0.5 mM respectively in a final volume of 10 μl. The reaction plates were then centrifuged at 1000 rpm for 1 minute and incubated at room temperature for 1 h. After 1 h of incubation, [^5Ns]-2′3′-cGAMP to a final concentration of 200 nM and 30 μL of 100% acetonitrile/0.175% of TFA were added to the reaction mixture. The plates were centrifuged at 1000 rpm for 1 minute before being sealed for 3 seconds at 170° C. using a ThermoScientific sealer (ALPS™ 50V) and an aluminum sealing cover (Pierce Seal, 4titude, Product Code: 4TI-0531).
The concentration of cGAMP was measured on a LC-MS/MS system consisting of a THERMO Dionex Ultimate LC system with a high pressure pump, an autosampler, a column heating compartment (Reinach, Switzerland) and a SCIEX Triple Quad 5500 (Framingham, MA, USA) mass spectrometer for detection. The sample plates were centrifuged for 10 minutes at 2000 rpm. Up to three plates were placed in the autosampler for injection. An aliquot of 10 μL of each sample was injected on an XBridge BEH Amide 3.5 μm, 2.1×50 mm column (P/N 186004859) with an XBridge BEH Amide 5 μm 2.1×5 mm VanGuard Cartridge (P/N 186007760) pre-column (both WATERS, MA, USA) held at 40° C. An isocratic flow of 1.0 mL/min solvent (60% ACN, 8 mM ammonium acetate, 5 mM ammonium hydroxide, 0.04% acetic acid) was applied and sprayed into the ion source of the mass spectrometers. The MS parameters were optimized based on the properties of the compounds to be detected and run in positive multi-reaction mode (MRM) based on the mass transitions. LC and MS parameters were also optimized to allow for a sample-to-sample measuring time of approximately 75 sec and a run time of 8 hours per 384-well plate. All data were analyzed with Excel; and the dose response curves were generated using the auto fitting function of XLfit. The IC50 was determined by plotting the cGAMP concentration ratio (cGAMP divided by the internal standard [^15Ns]-2′3′-cGAMP) versus the concentration of compound.

human truncated cGAS enzyme (147-522 human cGAS), sequence (Q8N884 147-522): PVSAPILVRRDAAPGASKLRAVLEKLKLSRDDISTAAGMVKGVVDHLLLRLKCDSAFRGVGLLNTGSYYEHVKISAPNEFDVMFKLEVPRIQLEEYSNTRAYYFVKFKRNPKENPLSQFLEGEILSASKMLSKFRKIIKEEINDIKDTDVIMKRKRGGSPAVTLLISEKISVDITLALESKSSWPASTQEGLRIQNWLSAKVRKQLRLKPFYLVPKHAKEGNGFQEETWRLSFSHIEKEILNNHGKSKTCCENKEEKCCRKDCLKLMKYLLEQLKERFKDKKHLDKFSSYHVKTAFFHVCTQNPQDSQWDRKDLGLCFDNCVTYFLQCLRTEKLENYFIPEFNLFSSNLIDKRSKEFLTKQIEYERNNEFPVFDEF

Going from `COc1cc2c(-n3ccnc3)c(-c3nnc(C(=O)N(C)C)[nH]3)n(C)c2c(F)c1F` [Example 104, 5-(6,7-difluoro-3-(1H-imidazol-1-yl)-5-methoxy-1-methyl-1H-indol-2-yl)-N,N-dimethyl-4H-1,2,4-triazole-3-carboxamide] to `COc1cc2c(-n3ccnc3)c(-c3nnc(C(=O)N(C)C)[nH]3)n(C)c2cc1Cl` [Example 116, 5-(6-chloro-3-(1H-imidazol-1-yl)-5-methoxy-1-methyl-1H-indol-2-yl)-N,N-dimethyl-4H-1,2,4-triazole-3-carboxamide], the IC50 falls from 318 nM to 103 nM (3.1-fold). The second is the more potent here.

`CCOc1cc2c(-n3ccnc3)c(-c3nnc(C(C)=O)[nH]3)n(C)c2c(F)c1Cl` [Example 101, 1-(5-(6-chloro-5-ethoxy-7-fluoro-3-(1H-imidazol-1-yl)-1-methyl-1H-indol-2-yl)-4H-1,2,4-triazol-3-yl)ethan-1-one] showed an IC50 of 721 nM.

Same assay, conditions: reported for the potential mixture of co-existing tautomers and/or racemates

Going from `COCC(c1nnc(-c2c(-c3cn[nH]c3)c3cc(OC)c(Cl)c(F)c3n2C)[nH]1)N(C)C` (stereo not drawn) [Example 81, 1-(5-(6-chloro-7-fluoro-5-methoxy-1-methyl-3-(1H-pyrazol-4-yl)-1H-indol-2-yl)-4H-1,2,4-triazol-3-yl)-2-methoxy-N,N-dimethylethan-1-amine] to `COc1cc2c(-c3cn[nH]c3)c(-c3nnc(C(C)C#N)[nH]3)n(C)c2c(F)c1Cl` (stereo not drawn) [Example 82, 2-(5-(6-Chloro-7-fluoro-5-methoxy-1-methyl-3-(1H-pyrazol-4-yl)-1H-indol-2-yl)-4H-1,2,4-triazol-3-yl)propanenitrile], the IC50 falls from 91 nM to 30 nM (3-fold). The second is the more potent here.

Compared with `COc1cc2c(-c3cn[nH]c3)c(-c3nnc(C(F)(F)F)[nH]3)n(C)c2c(F)c1Cl` [Example 1, 6-Chloro-7-fluoro-5-methoxy-1-methyl-3-(1H-pyrazol-4-yl)-2-(5-(trifluoromethyl)-4H-1,2,4-triazol-3-yl)-1H-indole], `Cn1c(-c2nnc(C(F)(F)F)[nH]2)c(-c2cn[nH]c2)c2cc(C#N)c(Cl)c(F)c21` [Example 8, 6-chloro-7-fluoro-1-methyl-3-(1H-pyrazol-4-yl)-2-(5-(trifluoromethyl)-4H-1,2,4-triazol-3-yl)-1H-indole-5-carbonitrile] is 1.8-fold higher in IC50: 74 nM for the first, 134 nM for the second. The first is the more potent here.

`COCC(F)(F)c1nnc(-c2[nH]c3c(Cl)c(Cl)ccc3c2-c2cn[nH]c2)[nH]1` [Example 9, 6,7-dichloro-2-(5-(1,1-difluoro-2-methoxyethyl)-4H-1,2,4-triazol-3-yl)-3-(1H-pyrazol-4-yl)-1H-indole] and `CCOC(=O)c1nnc(-c2[nH]c3c(Cl)c(Cl)ccc3c2-c2cn[nH]c2)[nH]1` [Example 21, ethyl 5-(6,7-dichloro-3-(1H-pyrazol-4-yl)-1H-indol-2-yl)-4H-1,2,4-triazole-3-carboxylate] are the same in IC50: 30 nM for the first, 30 nM for the second.

`COc1cc2c(-c3cn[nH]c3)c(-c3nnc(C(C)F)[nH]3)[nH]c2c(F)c1Cl` (stereo not drawn) [Example 71, 6-chloro-7-fluoro-2-(5-(1-fluoroethyl)-4H-1,2,4-triazol-3-yl)-5-methoxy-3-(1H-pyrazol-4-yl)-1H-indole] and `COc1cc2c(-c3cn[nH]c3)c(-c3nnc(C(C)(F)F)[nH]3)[nH]c2c(F)c1Cl` [Example 67, 6-chloro-2-(5-(1,1-difluoroethyl)-4H-1,2,4-triazol-3-yl)-7-fluoro-5-methoxy-3-(1H-pyrazol-4-yl)-1H-indole] are within 1.5-fold of each other in IC50: 44 nM for the first, 30 nM for the second.

Compared with `COc1cc2c(-n3ccnc3)c(-c3nnc(OC(C)C)[nH]3)n(C)c2c(F)c1Cl` [Example 85, 6-chloro-7-fluoro-3-(1H-imidazol-1-yl)-2-(5-isopropoxy-4H-1,2,4-triazol-3-yl)-5-methoxy-1-methyl-1H-indole], `COc1cc2c(-n3ccnc3)c(-c3nnc(F)[nH]3)n(C)c2c(F)c1Cl` [Example 86, 6-chloro-7-fluoro-2-(5-fluoro-4H-1,2,4-triazol-3-yl)-3-(1H-imidazol-1-yl)-5-methoxy-1-methyl-1H-indole] is 2.9-fold higher in IC50: 91 nM for the first, 264 nM for the second. The first is the more potent here.

First: OCCn1cnc(-c2[nH]c3c(Cl)c(Cl)ccc3c2-c2cn[nH]c2)n1 [Example 37, 2-(3-(6,7-dichloro-3-(1H-pyrazol-4-yl)-1H-indol-2-yl)-1H-1,2,4-triazol-1-yl)ethan-1-ol]
Second: COc1cc2c(-c3cn[nH]c3)c(-c3nnc(C(F)(F)F)[nH]3)n(CCO)c2cc1Cl [Example 25, 2-(6-chloro-5-methoxy-3-(1H-pyrazol-4-yl)-2-(5-(trifluoromethyl)-4H-1,2,4-triazol-3-yl)-1H-indol-1-yl)ethan-1-ol]
The IC50 of the first is 10-fold lower: 137 nM for the first, 1430 nM for the second. The first is the more potent here.

Compared with `FC(F)(F)c1nnc(-c2[nH]c3cc(Cl)c(Cl)cc3c2-c2cn[nH]c2)[nH]1` [Example 18, 5,6-dichloro-3-(1H-pyrazol-4-yl)-2-(5-(trifluoromethyl)-4H-1,2,4-triazol-3-yl)-1H-indole], `COc1cc2c(-n3ccnc3)c(-c3nnc(C(F)(F)F)[nH]3)[nH]c2c(F)c1Cl` [Example 48, 6-chloro-7-fluoro-3-(1H-imidazol-1-yl)-5-methoxy-2-(5-(trifluoromethyl)-4H-1,2,4-triazol-3-yl)-1H-indole] is 2.5-fold lower in IC50: 165 nM for the first, 66 nM for the second.

`COc1cc2c(-n3ccnc3)c(-c3nnc(CS(C)(=O)=O)[nH]3)n(C)c2c(F)c1Cl` [Example 56, 6-Chloro-7-fluoro-3-(1H-imidazol-1-yl)-5-methoxy-1-methyl-2-(5-((methylsulfonyl)methyl)-4H-1,2,4-triazol-3-yl)-1H-indole] and `COc1cc2c(-n3ccnc3)c(-c3nnc(C(=O)N4CCOCC4)[nH]3)n(C)c2c(F)c1Cl` [Example 42, (5-(6-chloro-7-fluoro-3-(1H-imidazol-1-yl)-5-methoxy-1-methyl-1H-indol-2-yl)-4H-1,2,4-triazol-3-yl)(morpholino)methanone] are within 1.5-fold of each other in IC50: 56 nM for the first, 63 nM for the second.

First: COCC(F)(F)c1nnc(-c2c(-c3cn[nH]c3)c3cc(OC)c(Cl)c(C#N)c3n2C)[nH]1 [Example 73, 6-chloro-2-(5-(1,1-difluoro-2-methoxyethyl)-4H-1,2,4-triazol-3-yl)-5-methoxy-1-methyl-3-(1H-pyrazol-4-yl)-1H-indole-7-carbonitrile]
Second: COCC(=O)N(C)c1nnc(-c2c(-c3cn[nH]c3)c3cc(OC)c(Cl)c(F)c3n2C)[nH]1 [Example 62, N-(5-(6-chloro-7-fluoro-5-methoxy-1-methyl-3-(1H-pyrazol-4-yl)-1H-indo1-2-yl)-4H-1,2,4-triazol-3-yl)-2-methoxy-N-methylacetamide]
The IC50 of the first is 2-fold lower: 30 nM for the first, 60 nM for the second.

Going from `COc1cc2c(-c3cn[nH]c3)c(-c3nnc(N4CCOCC4)[nH]3)n(C)c2c(F)c1Cl` [Example 59, 4-(5-(6-chloro-7-fluoro-5-methoxy-1-methyl-3-(1H-pyrazol-4-yl)-1H-indol-2-yl)-4H-1,2,4-triazol-3-yl)morpholine] to `COCC(=O)c1nnc(-c2[nH]c3c(F)c(Cl)c(OC)cc3c2-c2cn[nH]c2)[nH]1` [Example 57, 1-(5-(6-chloro-7-fluoro-5-methoxy-3-(1H-pyrazol-4-yl)-1H-indol-2-yl)-4H-1,2,4-triazol-3-yl)-2-methoxyethan-1-one], the IC50 falls from 78 nM to 30 nM (2.6-fold).

`COCC(O)c1nnc(-c2c(-n3ccnc3)c3cc(OC)c(Cl)c(C#N)c3n2C)[nH]1` (stereo not drawn) [Example 53, 6-chloro-2-(5-(1-hydroxy-2-methoxyethyl)-4H-1,2,4-triazol-3-yl)-3-(1H-imidazol-1-yl)-5-methoxy-1-methyl-1H-indole-7-carbonitrile] gave an IC50 of 66 nM.
